# Measurements: paper PMC4657098, “A Review of the Updated Pharmacophore for the Alpha 5 GABA(A) Benzodiazepine Receptor Model” (International Journal of Medicinal Chemistry, 2015)
# Key:
# σ1 = molecular target: T1, σ1 (Homo sapiens, UniProt Q99720); test: PDSP receptor binding, σ1; conditions: PDSP primary screen at 10 µM
# T1 construct: purchased NIMH PDSP (Psychoactive Drug Screening Program, Roth lab, Case Western Reserve)
# α3β3γ2 GABAA/BzR = α3β3γ2 GABAA/BzR (Homo sapiens, UniProt P18507+P34903); test: Competition binding to HEK cell membranes, α3β3γ2; parameters: expressed in transfected cells; conditions: Figure 5; read-out: Ki α3
# σ2 = test: PDSP receptor binding, σ2; conditions: PDSP primary screen at 10 µM
# α2A = molecular target: T2, α2A (Homo sapiens, UniProt P08913); test: PDSP receptor binding, α2A; conditions: PDSP primary screen at 10 µM
# T2 construct: purchased NIMH PDSP (Psychoactive Drug Screening Program, Roth lab, Case Western Reserve)
# D5 = molecular target: T3, D5 (Homo sapiens, UniProt P21918); test: PDSP receptor binding, D5; conditions: PDSP primary screen at 10 µM
# T3 construct: purchased NIMH PDSP (Psychoactive Drug Screening Program, Roth lab, Case Western Reserve)
# 5ht1e = molecular target: T4, 5ht1e (Homo sapiens, UniProt P28566); test: PDSP receptor binding, 5ht1e; conditions: PDSP primary screen at 10 µM
# T4 construct: purchased NIMH PDSP (Psychoactive Drug Screening Program, Roth lab, Case Western Reserve)
# Beta2 = molecular target: T5, Beta2 (Homo sapiens, UniProt P07550); test: PDSP receptor binding, Beta2; conditions: PDSP primary screen at 10 µM
# T5 construct: purchased NIMH PDSP (Psychoactive Drug Screening Program, Roth lab, Case Western Reserve)
# NET = molecular target: T6, NET (Homo sapiens, UniProt P23975); test: PDSP receptor binding, NET; conditions: PDSP primary screen at 10 µM
# T6 construct: purchased NIMH PDSP (Psychoactive Drug Screening Program, Roth lab, Case Western Reserve)
# α1A = molecular target: T7, α1A (Homo sapiens, UniProt P35348); test: PDSP receptor binding, α1A; conditions: PDSP primary screen at 10 µM
# T7 construct: purchased NIMH PDSP (Psychoactive Drug Screening Program, Roth lab, Case Western Reserve)
# H3 = molecular target: T8, H3 (Homo sapiens, UniProt Q9Y5N1); test: PDSP receptor binding, H3; conditions: PDSP primary screen at 10 µM
# T8 construct: purchased NIMH PDSP (Psychoactive Drug Screening Program, Roth lab, Case Western Reserve)
# mice = conditions: cited from earlier work
# 5ht5a = molecular target: T9, 5ht5a (Homo sapiens, UniProt P47898); test: PDSP receptor binding, 5ht5a; conditions: PDSP primary screen at 10 µM
# T9 construct: purchased NIMH PDSP (Psychoactive Drug Screening Program, Roth lab, Case Western Reserve)
# α1β3γ2 GABAA/BzR = α1β3γ2 GABAA/BzR (Homo sapiens, UniProt P14867+P18507); test: Competition binding to HEK cell membranes, α1β3γ2; parameters: expressed in transfected cells; conditions: Figure 5; read-out: Ki α1
# CB2 = molecular target: T10, CB2 (Homo sapiens, UniProt P34972); test: PDSP receptor binding, CB2; conditions: PDSP primary screen at 10 µM
# T10 construct: purchased NIMH PDSP (Psychoactive Drug Screening Program, Roth lab, Case Western Reserve)
# D1 = molecular target: T11, D1 (Homo sapiens, UniProt P21728); test: PDSP receptor binding, D1; conditions: PDSP primary screen at 10 µM
# T11 construct: purchased NIMH PDSP (Psychoactive Drug Screening Program, Roth lab, Case Western Reserve)
# MOR = molecular target: T12, MOR (Homo sapiens, UniProt P35372); test: PDSP receptor binding, MOR; conditions: PDSP primary screen at 10 µM
# T12 construct: purchased NIMH PDSP (Psychoactive Drug Screening Program, Roth lab, Case Western Reserve)
# [1] = system: other receptors (PDSP panel); test: Full PDSP panel receptor binding; conditions: NIMH PDSP, Case Western Reserve
# KOR = KOR (Homo sapiens, UniProt P41145); test: PDSP receptor binding, KOR; conditions: Case Western Reserve University, read-out: KOR Ki (secondary binding)
# MDR = test: PDSP receptor binding, MDR; conditions: PDSP primary screen at 10 µM
# DAT = molecular target: T13, DAT (Homo sapiens, UniProt Q01959); test: PDSP receptor binding, DAT; conditions: PDSP primary screen at 10 µM
# T13 construct: purchased NIMH PDSP (Psychoactive Drug Screening Program, Roth lab, Case Western Reserve)
# α5β3γ2 GABAA receptor = molecular target: T14, α5β3γ2 GABAA receptor (Homo sapiens, UniProt P18507+P31644); test: Oocyte electrophysiology, α5β3γ2; assay type: cell-based
# T14 construct: expressed in transfected cells; host or cells: Xenopus oocytes
# 5ht1b = molecular target: T15, 5ht1b (Homo sapiens, UniProt P28222); test: PDSP receptor binding, 5ht1b; conditions: PDSP primary screen at 10 µM
# T15 construct: purchased NIMH PDSP (Psychoactive Drug Screening Program, Roth lab, Case Western Reserve)
# 5ht6 = molecular target: T16, 5ht6 (Homo sapiens, UniProt P50406); test: PDSP receptor binding, 5ht6; conditions: PDSP primary screen at 10 µM
# T16 construct: purchased NIMH PDSP (Psychoactive Drug Screening Program, Roth lab, Case Western Reserve)
# α2β3γ2 GABAA/BzR = α2β3γ2 GABAA/BzR (Homo sapiens, UniProt P18507+P47869); test: Competition binding to HEK cell membranes, α2β3γ2; parameters: expressed in transfected cells; conditions: Figure 5; read-out: Ki α2
# D3 = molecular target: T17, D3 (Homo sapiens, UniProt P35462); test: PDSP receptor binding, D3; conditions: PDSP primary screen at 10 µM
# T17 construct: purchased NIMH PDSP (Psychoactive Drug Screening Program, Roth lab, Case Western Reserve)
# α5β3γ2 GABAA/BzR = α5β3γ2 GABAA/BzR (Homo sapiens, UniProt P18507+P31644); test: Competition binding to HEK cell membranes, α5β3γ2; parameters: expressed in transfected cells; conditions: Figure 5; read-out: Ki α5
# SERT = molecular target: T18, SERT (Homo sapiens, UniProt P31645); test: PDSP receptor binding, SERT; conditions: PDSP primary screen at 10 µM
# T18 construct: purchased NIMH PDSP (Psychoactive Drug Screening Program, Roth lab, Case Western Reserve)
smiles,measurement,setting,value
"CCc1ccc2c(c1)C(=O)N(C)Cc1c(C(=O)OCCCOC(=O)c3ncn4c3CN(C)C(=O)c3cc(CC)ccc3-4)ncn1-2 [XLi-356 (10), 1,3-Bis(8-ethyl-5,6-dihydro-5-methyl-6-oxo-4H-imidazo[1,5a][1,4]benzodiazepine-3-carboxy) propyl diester]",σ1 binding,σ1,∗ (“∗” indicates “primary missed” (<50% inhibition at 10 µM))
same,Ki,α3β3γ2 GABAA/BzR,8.55 µM
same,σ2 binding,σ2,∗ (“∗” indicates “primary missed” (<50% inhibition at 10 µM))
same,α2A binding,α2A,∗ (“∗” indicates “primary missed” (<50% inhibition at 10 µM))
same,D5 binding,D5,∗ (“∗” indicates “primary missed” (<50% inhibition at 10 µM))
same,5ht1e binding,5ht1e,∗ (“∗” indicates “primary missed” (<50% inhibition at 10 µM))
same,Beta2 binding,Beta2,∗ (“∗” indicates “primary missed” (<50% inhibition at 10 µM))
same,NET binding,NET,∗ (“∗” indicates “primary missed” (<50% inhibition at 10 µM))
same,α1A binding,α1A,∗ (“∗” indicates “primary missed” (<50% inhibition at 10 µM))
same,H3 binding,H3,∗ (“∗” indicates “primary missed” (<50% inhibition at 10 µM))
same,freezing (contextual memory) after scopolamine,"mice; 10 mg/kg, scopolamine 1 mg/kg",attenuated the impairment of memory
same,reversal of scopolamine induced memory deficits,mice; mice,potently reverse scopolamine induced memory deficits
same,5ht5a binding,5ht5a,∗ (“∗” indicates “primary missed” (<50% inhibition at 10 µM))
same,Ki,α1β3γ2 GABAA/BzR,1.85 µM
same,CB2 binding,CB2,∗ (“∗” indicates “primary missed” (<50% inhibition at 10 µM))
same,D1 binding,D1,∗ (“∗” indicates “primary missed” (<50% inhibition at 10 µM))
same,MOR binding,MOR,∗ (“∗” indicates “primary missed” (<50% inhibition at 10 µM))
same,full panel receptor binding,[1],do not bind to other receptors at levels of concern
same,Ki,KOR,6.12 µM
same,MDR binding,MDR,∗ (“∗” indicates “primary missed” (<50% inhibition at 10 µM))
same,DAT binding,DAT,∗ (“∗” indicates “primary missed” (<50% inhibition at 10 µM))
same,efficacy type at the α5 subtype,α5β3γ2 GABAA receptor,weak agonist-antagonist
same,5ht1b binding,5ht1b,∗ (“∗” indicates “primary missed” (<50% inhibition at 10 µM))
same,5ht6 binding,5ht6,∗ (“∗” indicates “primary missed” (<50% inhibition at 10 µM))
same,Ki,α2β3γ2 GABAA/BzR,4.2 µM
same,D3 binding,D3,∗ (“∗” indicates “primary missed” (<50% inhibition at 10 µM))
same,Ki,α5β3γ2 GABAA/BzR,0.101 µM
same,SERT binding,SERT,∗ (“∗” indicates “primary missed” (<50% inhibition at 10 µM))
